Consider 8 molecules from US8574563B2 (Bristol-Myers Squibb Company, priority 2006, dated 2013).

The experiment deals with HCV 1b-377-neo replicon cells. The experiment in a line: HCV replicon assay, HCV 1b-377-neo replicon cells (1b FRET). Type of experiment: cell-based, Hepatitis C virus genotype 1b. The following applies: Hepatitis C virus, HCV 1b-377-neo replicon cells; HCV 1b genotype; read-out: EC50 range against HCV 1b (Table 2, Range). A digest of the protocol: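 Compounds tested in HCV genotype 1b-377-neo replicon cells with a FRET read-out. Cells resistant to a reference NS5A inhibitor through a Y2065H NS5A mutation were run alongside wild-type cells.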
On the technique in general: A replicon is a self-replicating genome or part of one, used to study replication in cells.

pEC50: −log10 of the molar value.

Regarding `CN1CCC[C@H]1C(=O)N[C@@H](C(=O)N1CCC[C@H]1c1ncc(-c2ccc(-c3ccc(-c4cnc([C@@H]5CCCN5C(=O)[C@H](NC(=O)[C@@H]5CCCN5C)c5ccccc5)[nH]4)cc3)cc2)[nH]1)c1ccccc1` [Example 25-3, (2S,2′S)-N,N′-(4,4′-biphenyldiylbis(1H-imidazole-5,2-diyl(2S)-2,1-pyrrolidinediyl((1R)-2-oxo-1-phenyl-2,1-ethanediyl)))bis(1-methyl-2-pyrrolidinecarboxamide)], the pEC50 was 9.00 to 12.00.
Next, `O=C(Cc1cccnc1)N[C@@H](C(=O)N1CCC[C@H]1c1ncc(-c2ccc(-c3ccc(-c4cnc([C@@H]5CCCN5C(=O)[C@H](NC(=O)Cc5cccnc5)c5ccccc5)[nH]4)cc3)cc2)[nH]1)c1ccccc1` [Example 25-4, N,N′-(4,4′-biphenyldiylbis(1H-imidazole-5,2-diyl(2S)-2,1-pyrrolidinediyl((1R)-2-oxo-1-phenyl-2,1-ethanediyl)))bis(2-(3-pyridinyl)acetamide)]: 9.00 to 12.00; `CN(C)CC(=O)N[C@@H](C(=O)N1CCC[C@H]1c1ncc(-c2ccc(-c3ccc(-c4cnc([C@@H]5CCCN5C(=O)[C@H](NC(=O)CN(C)C)c5ccccc5)[nH]4)cc3)cc2)[nH]1)c1ccccc1` [Example 25-5, N,N′-(4,4′-biphenyldiylbis(1H-imidazole-5,2-diyl(2S)-2,1-pyrrolidinediyl((1R)-2-oxo-1-phenyl-2,1-ethanediyl)))bis(2-(dimethylamino)acetamide)]: 9.00 to 12.00.
Next, `O=C(N[C@@H](C(=O)N1CCC[C@H]1c1ncc(-c2ccc(-c3ccc(-c4cnc([C@@H]5CCCN5C(=O)[C@H](NC(=O)N5CCOCC5)c5ccccc5)[nH]4)cc3)cc2)[nH]1)c1ccccc1)N1CCOCC1` [Example 25-6, N,N′-(4,4′-biphenyldiylbis(1H-imidazole-5,2-diyl(2S)-2,1-pyrrolidinediyl((1R)-2-oxo-1-phenyl-2,1-ethanediyl)))di(4-morpholinecarboxamide)]: 7.00 to 9.00.
Turning to `CN1CCN(C(=O)N[C@@H](C(=O)N2CCC[C@H]2c2ncc(-c3ccc(-c4ccc(-c5cnc([C@@H]6CCCN6C(=O)[C@H](NC(=O)N6CCN(C)CC6)c6ccccc6)[nH]5)cc4)cc3)[nH]2)c2ccccc2)CC1` [Example 25-7, N,N′-(4,4′-biphenyldiylbis(1H-imidazole-5,2-diyl(2S)-2,1-pyrrolidinediyl((1R)-2-oxo-1-phenyl-2,1-ethanediyl)))bis(4-methyl-1-piperazinecarboxamide)], the negative logarithm of the EC50 (pEC50) was 7.00 to 9.00.
Next, `O=C(Nc1cccnc1)N[C@@H](C(=O)N1CCC[C@H]1c1ncc(-c2ccc(-c3ccc(-c4cnc([C@@H]5CCCN5C(=O)[C@H](NC(=O)Nc5cccnc5)c5ccccc5)[nH]4)cc3)cc2)[nH]1)c1ccccc1` [Example 25-8, N,N″-(4,4′-biphenyldiylbis(1H-imidazole-5,2-diyl(2S)-2,1-pyrrolidinediyl((1R)-2-oxo-1-phenyl-2,1-ethanediyl)))bis(3-(3-pyridinyl)urea)]: 9.00 to 12.00; `COC(=O)N[C@@H](C(=O)N1CCC[C@H]1c1ncc(-c2ccc(-c3ccc(-c4cnc([C@@H]5CCCN5C(=O)[C@H](NC(=O)OC)C(C)C)[nH]4)cc3)cc2)[nH]1)C(C)C` [Example 26, methyl ((1R)-1-(((2S)-2-(5-(4′-(2-((2S)-1-((2R)-2-((methoxycarbonyl)amino)-3-methylbutanoyl)-2-pyrrolidinyl)-1H-imidazol-5-yl)-4-biphenylyl)-1H-imidazol-2-yl)-1-pyrrolidinyl)carbonyl)-2-methylpropyl)carbamate]: 7.00 to 9.00.
Next, `CC(=O)N[C@@H](C(=O)N1CCC[C@H]1c1ncc(-c2ccc(-c3ccc(-c4cnc([C@@H]5CCCN5C(=O)[C@H](NC(C)=O)C(C)C)[nH]4)cc3)cc2)[nH]1)C(C)C` [Example 27, N-((1R)-1-(((2S)-2-(5-(4′-(2-((2S)-1-((2R)-2-acetamido-3-methylbutanoyl)-2-pyrrolidinyl)-1H-imidazol-5-yl)-4-biphenylyl)-1H-imidazol-2-yl)-1-pyrrolidinyl)carbonyl)-2-methylpropyl)acetamide]: 7.00 to 9.00.

What is called pEC50 is the EC50 on a negative log10 scale, so that one unit is a factor of ten.
